Legend:
IL-1β = IL-1β ELISA, PMA-treated THP-1 cells stimulated with IFNγ and LPS; format: cell-based, human; details: for Ave IL-Ib 1/10 Avg / Ave IL-Ib 1/10 Rep 1 / Ave IL-Ib 1/10 Rep 2 / Ave IL-Ib 2/28 Rep 1 / Ave IL-Ib 2/28 Rep 2 / Ave IL-Ib 2/28 Rep 3 / IL-1β Relative %: THP-1
Description: Methodology: The study included replicated tests of IL-1β levels with and without CPDS, as well as reference testing of untreated cells and cells treated with lactoferrin and clobetasol. A third test was conducted of IL-1 receptor […] (IL-1RA) receptor, to assist in distinguishing whether reductions in IL-1β levels were associated with secretion or receptor blocking (via the receptor antagonist). Cell viability studies were conducted for both sets of tests. Each of the tests used an ELISA model with the following protocols. 1. THP-1 cells were grown in (RPMI+10% FBS, 10 mM HEPES, 1 mM Sodium Pyruvate, and 0.05 mM 2-Mecaptpethanol) to P8. 2. Cells were plated at 30,000 cells per well in 120 ul with Media+20 ng/ml PMA+2× Genta. 3. […] Cells were treated according to plan below. 5. Cells were incubated for three more days at 37° C. and 5% CO2. 6. Cell supernatant were collected and ELISA was measured for IL-1RA, IL-1α, and IL-1β. 7. Plate was read at 490 nm until O.D reached 1.5. Day 1—1. THP-1+20 ng/ml PMA 30,000 cells per well 120 uL Day 3—1. Add Compound at 4× in 60 uL. Incubate for 2 hours. CPDS—800 uM (200 uM Final), lactoferrin—800 ug/mL (200 ug/ml Final) clobetasol −40 ng/mL (10 ng/mL Final). 2. […] Add 30 uL LPS at 8×—20 ng/ml (2.5 ng/ml final) in 30 uL (Wells 2-10) 4. Incubate for 3 days. Day 6—1. Collect 80 ul of sample 2 times and freeze for ELISA. 2. Develop with 15 uL of Substrate and read at 490 nm until plate reaches 1.5 OD. THP-1 is a spontaneously immortalized monocyte-like cell line, derived from the peripheral blood of a childhood case of acute monocytic leukemia, which has been extensively used to study monocyte/macrophage functions, mechanisms, signaling pathways, and nutrient and drug transport. This cell line has become a common model to estimate modulation of monocyte and macrophage activities.

THP-1 cells = assay: Cell viability of CPDS-treated THP-1 cells; format: cell-based, human
Description: Methodology: The study included replicated tests of IL-1β levels with and without CPDS, as well as reference testing of untreated cells and cells treated with lactoferrin and clobetasol. A third test was conducted of IL-1 receptor […] (IL-1RA) receptor, to assist in distinguishing whether reductions in IL-1β levels were associated with secretion or receptor blocking (via the receptor antagonist). Cell viability studies were conducted for both sets of tests. 1. THP-1 cells were grown in (RPMI+10% FBS, 10 mM HEPES, 1 mM Sodium Pyruvate, and 0.05 mM 2-Mecaptpethanol) to P8. 2. Cells were plated at 30,000 cells per well in 120 ul with Media+20 ng/ml PMA+2× Genta. 3. […] Cells were treated according to plan below. 5. Cells were incubated for three more days at 37° C. and 5% CO2. 6. Cell supernatant were collected and ELISA was measured for IL-1RA, IL-1α, and IL-1β. 7. Plate was read at 490 nm until O.D reached 1.5.

IP-10 = assay: LPS-stimulated RAW 264.7 cells, IP-10 secretion; format: cell-based; details: murine RAW 264.7 cells, pre-treatment prior to LPS
Description: An in vitro model of inflammation mediated by macrophages is used. […] A murine macrophage cell line RAW264.7 (CCRL-2278) was also used. Macrophages are treated with CPDS. […] Then the effect of CPDS on inflammation is assessed by comparing the levels of anti-inflammatory mediators IL-6 and IL-10. IL-10 and IL-6 were determined by ELISA. The level of IL-6 and IL-10 were compared to the level prior to CPDS treatment. […] In addition we measured decrease in the secretion of IP-10.

[1] = CPDS 1.6 uM + 10 ng/ml IFNy + 2.5 ng/ml LPS
[2] = CPDS 3.1 uM + 10 ng/ml IFNy + 2.5 ng/ml LPS
[3] = CPDS 6.3 uM + 10 ng/ml IFNy + 2.5 ng/ml LPS
[4] = CPDS 12.5 uM + 10 ng/ml IFNy + 2.5 ng/ml LPS
[5] = CPDS 25.0 uM + 10 ng/ml IFNy + 2.5 ng/ml LPS
[6] = CPDS 50.0 uM + 10 ng/ml IFNy + 2.5 ng/ml LPS
[7] = CPDS 100.0 uM + 10 ng/ml IFNy + 2.5 ng/ml LPS
[8] = CPDS 200.0 uM + 10 ng/ml IFNy + 2.5 ng/ml LPS

O=C(O)c1ccc(SSc2ccc(C(=O)O)cn2)nc1 [CPDS, 6,6′-dithiodinicotinic acid]
neutralization of production of IL-1β in human cells (IL-1β; 25 μM): near neutralization | Ave IL-Ib 1/10 Avg (IL-1β; [1]): 0.19 ng/mL | Ave IL-Ib 1/10 Rep 1 (IL-1β; [1]): 0.19 ng/mL | Ave IL-Ib 1/10 Rep 2 (IL-1β; [1]): 0.18 ng/mL | Ave IL-Ib 2/28 Rep 1 (IL-1β; [1]): 0.32 ng/mL | Ave IL-Ib 2/28 Rep 2 (IL-1β; [1]): 0.29 ng/mL | Ave IL-Ib 2/28 Rep 3 (IL-1β; [1]): 0.30 ng/mL | IL-1β Relative % (IL-1β; [1]): 114.2% | Ave IL-Ib 1/10 Avg (IL-1β; [2]): 0.19 ng/mL | Ave IL-Ib 1/10 Rep 1 (IL-1β; [2]): 0.21 ng/mL | Ave IL-Ib 1/10 Rep 2 (IL-1β; [2]): 0.17 ng/mL | Ave IL-Ib 2/28 Rep 1 (IL-1β; [2]): 0.30 ng/mL | Ave IL-Ib 2/28 Rep 2 (IL-1β; [2]): 0.26 ng/mL | Ave IL-Ib 2/28 Rep 3 (IL-1β; [2]): 0.28 ng/mL | IL-1β Relative % (IL-1β; [2]): 105.2% | Ave IL-Ib 1/10 Avg (IL-1β; [3]): 0.15 ng/mL | Ave IL-Ib 1/10 Rep 1 (IL-1β; [3]): 0.15 ng/mL | Ave IL-Ib 1/10 Rep 2 (IL-1β; [3]): 0.14 ng/mL | Ave IL-Ib 2/28 Rep 1 (IL-1β; [3]): 0.23 ng/mL | Ave IL-Ib 2/28 Rep 2 (IL-1β; [3]): 0.24 ng/mL | Ave IL-Ib 2/28 Rep 3 (IL-1β; [3]): 0.24 ng/mL | IL-1β Relative % (IL-1β; [3]): 88.7% | Ave IL-Ib 1/10 Avg (IL-1β; [4]): 0.08 ng/mL | Ave IL-Ib 1/10 Rep 1 (IL-1β; [4]): 0.09 ng/mL | Ave IL-Ib 1/10 Rep 2 (IL-1β; [4]): 0.06 ng/mL | Ave IL-Ib 2/28 Rep 1 (IL-1β; [4]): 0.13 ng/mL | Ave IL-Ib 2/28 Rep 2 (IL-1β; [4]): 0.11 ng/mL | Ave IL-Ib 2/28 Rep 3 (IL-1β; [4]): 0.12 ng/mL | IL-1β Relative % (IL-1β; [4]): 45.8% | Ave IL-Ib 1/10 Avg (IL-1β; [5]): 0.04 ng/mL | Ave IL-Ib 1/10 Rep 1 (IL-1β; [5]): 0.05 ng/mL | Ave IL-Ib 1/10 Rep 2 (IL-1β; [5]): 0.03 ng/mL | Ave IL-Ib 2/28 Rep 1 (IL-1β; [5]): 0.04 ng/mL | Ave IL-Ib 2/28 Rep 2 (IL-1β; [5]): 0.03 ng/mL | Ave IL-Ib 2/28 Rep 3 (IL-1β; [5]): 0.04 ng/mL | IL-1β Relative % (IL-1β; [5]): 13.7% | Ave IL-Ib 1/10 Avg (IL-1β; [6]): 0.01 ng/mL | Ave IL-Ib 1/10 Rep 1 (IL-1β; [6]): 0.01 ng/mL | Ave IL-Ib 1/10 Rep 2 (IL-1β; [6]): 0.01 ng/mL | Ave IL-Ib 2/28 Rep 1 (IL-1β; [6]): 0.02 ng/mL | Ave IL-Ib 2/28 Rep 2 (IL-1β; [6]): 0.01 ng/mL | Ave IL-Ib 2/28 Rep 3 (IL-1β; [6]): 0.02 ng/mL | IL-1β Relative % (IL-1β; [6]): 6.1% | Ave IL-Ib 1/10 Avg (IL-1β; [7]): 0.01 ng/mL | Ave IL-Ib 1/10 Rep 1 (IL-1β; [7]): 0.01 ng/mL | Ave IL-Ib 1/10 Rep 2 (IL-1β; [7]): 0.01 ng/mL | Ave IL-Ib 2/28 Rep 1 (IL-1β; [7]): 0.03 ng/mL | Ave IL-Ib 2/28 Rep 2 (IL-1β; [7]): 0.01 ng/mL | Ave IL-Ib 2/28 Rep 3 (IL-1β; [7]): 0.02 ng/mL | IL-1β Relative % (IL-1β; [7]): 8.2% | Ave IL-Ib 1/10 Avg (IL-1β; [8]): 0.01 ng/mL | Ave IL-Ib 1/10 Rep 1 (IL-1β; [8]): 0.01 ng/mL | Ave IL-Ib 1/10 Rep 2 (IL-1β; [8]): 0.01 ng/mL | Ave IL-Ib 2/28 Rep 1 (IL-1β; [8]): 0.02 ng/mL | Ave IL-Ib 2/28 Rep 2 (IL-1β; [8]): 0.02 ng/mL | Ave IL-Ib 2/28 Rep 3 (IL-1β; [8]): 0.02 ng/mL | IL-1β Relative % (IL-1β; [8]): 6.8% | ability of IFN-γ to stimulate the production of IL-1β (IL-1β; FIG. 1, clinically obtainable levels of CPDS): markedly reduce | levels of IL-1β (IL-1β; FIG. 2, in the presence of LPS): substantially reduce | secretion of IL-1β blocked (IL-1β; concentration as low as 50 uM CPDS): 94% | neutralization of IL-1β (IL-1β; concentrations of 12.5 to 200 μM): complete neutralization | reduction of measured IL-1β levels (IL-1β; concentrations of 12.5 to 200 μM, both tests): 92-99% | neutralization of production of IL-1β in human cells (IL-1β; concentrations ranging from 50-200 μM): completely neutralize | cell viability (THP-1 cells; 200 μM): slight decline in viability | cell viability (THP-1 cells; all CPDS concentrations except 200 μM, both tests): ≥ 100% | secretion of IP-10 (IP-10): decrease
